Measured values reported in paper PMC8273128 (ACS infectious diseases, 2021).

Assays:
SmTGR WT [1] = target: T1, SmTGR WT (Schistosoma mansoni, UniProt Q962Y6); test: biochemical
SmTGR-U597C = SmTGR-U597C (Schistosoma mansoni, UniProt Q962Y6); test: X-ray crystallography fragment soaking and co-crystallization; assay type: binding; conditions: crystal structure of SmTGR-U597C, soaking or co-crystallization
SmTGR WT [2] = target: T1, SmTGR WT; test: Steady-state competition experiments versus NADPH; assay type: biochemical; conditions: upon increasing compound concentration from 0 to 3 mM
SmTGR-E330A/D334A = SmTGR-E330A/D334A (Schistosoma mansoni, UniProt Q962Y6, D334A/E330A); test: DTNB assay on SmTGR-E330A/D334A double mutant; assay type: biochemical; conditions: 500 μM compound
SmTGR-E337A = target: T2, SmTGR-E337A (Schistosoma mansoni, UniProt Q962Y6, E337A); test: biochemical
T2 sequence (Q962Y6 1-598 E337A): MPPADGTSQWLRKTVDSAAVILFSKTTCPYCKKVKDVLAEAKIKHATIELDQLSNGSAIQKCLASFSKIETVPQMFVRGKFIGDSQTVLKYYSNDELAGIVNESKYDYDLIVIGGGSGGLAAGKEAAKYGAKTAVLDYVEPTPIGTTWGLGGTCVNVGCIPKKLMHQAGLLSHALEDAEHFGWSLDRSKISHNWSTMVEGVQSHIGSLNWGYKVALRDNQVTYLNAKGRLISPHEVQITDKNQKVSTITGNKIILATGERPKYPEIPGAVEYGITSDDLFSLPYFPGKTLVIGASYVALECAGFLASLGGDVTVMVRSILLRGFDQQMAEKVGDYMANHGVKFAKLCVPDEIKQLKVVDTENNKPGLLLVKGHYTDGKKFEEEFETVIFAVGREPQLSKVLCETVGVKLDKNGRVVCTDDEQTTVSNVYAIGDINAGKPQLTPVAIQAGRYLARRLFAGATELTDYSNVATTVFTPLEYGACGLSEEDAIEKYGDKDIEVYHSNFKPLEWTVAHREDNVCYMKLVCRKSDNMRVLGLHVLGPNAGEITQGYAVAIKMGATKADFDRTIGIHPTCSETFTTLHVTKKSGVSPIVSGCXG

| Compound | IC50 (SmTGR WT [1]) [µM] | Binding site (SmTGR-U597C) | decrease of Vmax (SmTGR WT [2]) | inhibition at 500 µM (SmTGR WT [1]; read-out: % of inhibition at 500 μM) [%] | percentage of inhibition at 500 μM (SmTGR-E330A/D334A) [%] | IC50 (SmTGR-E337A) [µM] |
| --- | --- | --- | --- | --- | --- | --- |
| COc1nc2ccccc2nc1CCC(=O)O [Compound 1, 3-(3-methoxyquinoxalin-2-yl)propanoic acid] | > 3000 | Site 1 (both insoakingand in co-crystallization experiments) | – | – | – | – |
| Cc1[nH]c2ccccc2c1CC(=O)O [Compound 2, 2-methylindole-3-acetic acid] | > 1000 | Site 1 | ~ 10% | – | – | – |
| Nc1cccc2nsnc12 [Compound 3, 4-aminopiazthiole] | ~500 | Site 2 | – | 51.4 ± 4.1 | 48.1 ± 6.2 | – |
| OCc1c[nH]c2ccccc12 [Compound 4, indole-3-carbinol] | 284 ± 12 | Site 2 | – | – | – | 283 ± 15 |
| Cc1ccc2c(O)c(C(=O)O)cnc2n1 [Compound 5, 4-hydroxy-7-methyl-1,8-naphthyridine-3-carboxylic acid] | – | Site 3 | – | – | – | – |
